Values of other authors in patent US20230189810A1, “AQUEOUS COMPOSITION OF DITHI[…]” (priority 2020, published 2023).

Conditions: water, 20° C.

mancozeb
solubility: about 6.2 mg per liter
